Data as given in patent US11987563B1, “3-cyano 4,5-diphenyl furan-2-carboxamides as antitubercular agents” (KING FAISAL UNIVERSITY, priority 2023, dated 2024).

Tests used:
M. smegmatis = experiment: Microplate Alamar Blue Assay (MABA) against M. smegmatis; format: cell-based, Mycobacterium smegmatis; details: Mycolicibacterium smegmatis; read-out: M. smegmatis (% of inhibition) 50 μg/mL
M. tuberculosis H37Rv = experiment: Microplate Alamar Blue Assay (MABA) against M. tuberculosis H37Rv; format: cell-based; details: Mycobacterium tuberculosis, read-out: M. tuberculosis H37Rv (% of inhibition) 50 μg/mL

| SMILES | inhibition at 50 µg/mL (M. smegmatis) [%] | inhibition at 50 µg/mL (M. tuberculosis H37Rv) [%] |
| --- | --- | --- |
| N#Cc1c(NC(=O)c2ccccc2)oc(-c2ccccc2)c1-c1ccccc1 [Compound 2b, N-(3-Cyano-4,5-diphenylfuran-2-yl)benzamide] | 13 | 6 |
| N#Cc1c(N)oc(-c2ccccc2)c1-c1ccccc1 [Compound 1, 2-Amino-4,5-diphenylfuran-3-carbonitrile] | 32 | 6 |
| N#Cc1c(NC(=O)c2ccc(Cl)cc2)oc(-c2ccccc2)c1-c1ccccc1 [Compound 2c, 4-Chloro-N-(3-cyano-4,5-diphenylfuran-2-yl)benzamide] | 25 | 19 |
| Cc1ccc(S(=O)(=O)Nc2oc(-c3ccccc3)c(-c3ccccc3)c2C#N)cc1 [Compound 2d, N-(3-Cyano-4,5-diphenylfuran-2-yl)-4-methylbenzenesulfonamide] | 37 | 9 |
| CC(=O)Nc1oc(-c2ccccc2)c(-c2ccccc2)c1C#N [Compound 2a, N-(3-Cyano-4,5-diphenylfuran-2-yl)acetamide] | 38 | 27 |
